Source: PMC11678869, “Functional Role of Odorant-Binding Proteins in Response to Sex Pheromone Component Z8-14:Ac in Grapholita molesta (Busck)” (Insects, 2024)

Experiments:
rGmolGOBP2 = rGmolGOBP2 (Grapholita molesta, UniProt H9XTU6); test: Fluorescence competitive binding assay with 1-NPN probe
Excerpt: (§1) Previous researchers have successfully expressed rGmolPBP1, rGmolPBP2, rGmolPBP3, rGmolGOBP1, and rGmolGOBP2 proteins using prokaryotic expression systems. In this article, the DNA sequences of these five GmolPBPs and GmolGOBPs, with the signal peptides removed and restriction sites on both ends, were inserted into the expression vector pET28a(+) linearized with the same restriction enzyme. These vectors were then transformed into Escherichia coli BL21(DE3) and induced by isopropyl-β-d-thiogalactoside (IPTG). Since all five recombinant proteins were expressed in inclusion bodies, they were denatured using 8 M urea and then renatured using a cysteine/cystine REDOX system. The reduced recombinant proteins were purified using an Ni-NTA His Bind Resin column (7Sea Pharmatech Co., Ltd., Shanghai, China). Non-target proteins were washed off with washing buffer (20 mM Tris-HCl (pH 7.4), 20 mM imidazole, 1 mM PMSF, and 250 mM NaCl), and then the target proteins were eluted with elution buffer (20 mM Tris-HCl (pH 7.4), 1 mM PMSF, and 250 mM NaCl) with an increasing concentration of imidazole (50, 100, and 200 mM). Five milliliters of eluents with high target protein content and low levels of contaminants were collected and placed in dialysis tubing (Coolaber, Beijing, China) with a molecular weight cut-off of 3.5 kDa to remove NaCl and imidazole. The purified soluble proteins were stored at −80 °C before use.
(§2) The binding affinities of three rGmolPBPs and two rGmolGOBPs for Z8-14:Ac were determined using an F-2700 fluorescence spectrophotometer (Hitachi, Tokyo, Japan). First, we measured the dissociation constants (Kd) of the rGmolPBPs (or rGmolGOBPs) binding to 1−NPN. Each protein was diluted to 2 μM with 20 mM Tris-HCl buffer (pH 7.4); then, 2 mL of the protein solution was transferred to a quartz cuvette and titrated with 1 mM 1−NPN to a final concentration of 1–18 μM. As the doses of 1−NPN were increased, the increasing amplitude of the fluorescence intensity decreased, and finally, the binding of the protein to 1−NPN reached saturation. The Kd values were calculated using the nonlinear regression method and the Scatchard equation. Second, we measured the inhibitory constant (Ki) of Z8-14:Ac’s competitive binding with each rGmolPBP (or rGmolGOBP) from the protein/1−NPN complex. The initial fluorescence intensity values were measured after a 2 min reaction in 2 mL solution of 20 mM Tris-HCl (pH 7.4) containing 2 µM rGmolPBP (or rGmolGOBP) protein and 2 µM 1−NPN. Then, the solution was titrated with aliquots of 1 mM Z8-14:Ac to obtain final concentrations in the range of 1–14 µM, and the fluorescence intensity value of each reaction was recorded. The Ki values were calculated using the following equation: Ki = [IC50]/(1 + [1 − NPN]/Kd) where IC50 is the concentration of Z8-14:Ac when half of the initial fluorescence intensity value of the rGmolPBP (or GmolGOBP)/1−NPN complex is replaced, [1 − NPN] represents the concentration of free 1−NPN, and Kd is the dissociation constant of the rGmolPBP (or GmolGOBP)/1−NPN complex.

rGmolGOBP1 = rGmolGOBP1 (Grapholita molesta, UniProt H9XTU5); test: as above
Excerpt: as §1, §2

rGmolPBP2 (wild-type) = rGmolPBP2 (wild-type) (Grapholita molesta, UniProt A0A059VC28); test: as above
Excerpt: as §1, §2

rGmolPBP1 = rGmolPBP1 (Grapholita molesta, UniProt A0A2R4SBD6); test: as above
Excerpt: as §1, §2

rGmolPBP3 = rGmolPBP3 (Grapholita molesta, UniProt A0A059VBP3); test: as above
Excerpt: as §1, §2

PFM male antennae = test: Electroantennogram (EAG) analysis; parameters: species or system Grapholita funebrana; conditions: 20, 200 and 2000 μg doses
Method: (§3) Electroantennogram (EAG) equipment (Syntech, Hilversum, The Netherlands) was used to record the antennal responses of the OFM and PFM adults to Z8-12:Ac, E8-12:Ac, Z8-12:OH, Z8-14:Ac, and Z10-14:Ac. These sex pheromone compounds were diluted with liquid paraffin to prepare a stimulus solution of 100 μg/μL, which was subsequently diluted to 10 and 1 μg/μL. Antenna from 3-day-old OFM and 2- to 4-day-old PFM virgin males were excised at its base, with the distal part of the terminal segment being removed. Then, the treated antenna was attached to electrode holders with SpectraR360 conducting gel. A stimulus controller (model CS-55, Syntegon Technology, Waiblingen, Germany) continuously supplied a humidified air stream at a rate of 500 mL/min. Then, 20 μL of each stimulus solution was adsorbed onto a twice-folded filter paper strip (0.5 cm × 4 cm) placed on the wide section of a l mL pipette tip, which served as an odorant cartridge. Vapor stimuli were delivered by an air compressor into the constant air stream described above, flowing in a copper delivery tube (i.d. 8 mm) with the outlet positioned approximately 1 cm from the antenna. The EAG amplitude tests of the OFM and PFM males’ responses to sex pheromones started with solvent control stimuli (20 μL of liquid paraffin), followed by stimulation with 20, 200, and 2000 μg doses (20 μL of 1.0, 10.0, and 100.0 μg/μL of liquid paraffin solutions, respectively) of stimulus in sequence. The solvent control was performed at the end of the run. To control for variations among antennae, each sample was tested on 10 antennae of different males. The EAG signals and data were analyzed using EAG 2000 software (Syntech, Hilversum, The Netherlands). The corrected EAG amplitude value = absolute EAG amplitude value − (EAGck1 + EAGck2)/2, where EAGck1 and EAGck2 represent the absolute EAG amplitude values of the solvent control before and after measuring each stimulus, respectively. The relative EAG response of the OFM and PFM males to the same doses of sex pheromones were subjected to an analysis of independent sample t-test (p = 0.05) using SPSS version 23.0 (IBM).

OFM male antennae = test: Electroantennogram (EAG) analysis; parameters: species or system Grapholita molesta; conditions: for EAG response of OFM males: 20, 200 and 2000 μg doses
Method: as §3

PFM males = test: Field trapping with delta traps, pear orchard; format: in vivo, Grapholita funebrana
Method: (§4) To determine the inhibitory effects on OFM male adults and the impact on the trapping effects of PFM male adults, varying amounts of Z8-14:Ac (0, 5, 10, 25, 50, 75, 100, 125, 150 μg) or Z10-14:Ac (0, 25, 50, 100, 150, 250, 350, 450, and 550 μg) were added to rubber septa loaded with a constant dosage of the main pheromone (500 μg of Z8-12:Ac and 20 μg of E8-12:Ac) of the PFM. Trapping experiments of Z8-14:Ac were carried out in peach and pear orchards in Yan’an and Xinjiang (China), respectively. Trapping tests of Z10-14:Ac were performed in pear orchards in Xinjiang (China). Each orchard had nine plots, with three plots in one field. Each plot consisted of a linear arrangement of traps loaded with a constant dosage of the main pheromones and different percentages of the secondary pheromone Z8-14:Ac or Z10-14:Ac of the PFM. Plots in the same field were placed 30 m apart, and fields were ≥1 km apart. The traps were hung 1.4 m from the ground on a suspension bracket between two rows of peach or pear trees from 10 June to 25 July 2021 in Xinjiang and from 15 June to 30 July 2021 in Yan’an. The positions of the traps within the plot were randomly arranged. Every 5 days, counts were taken, and the traps were rotated to the adjacent position to avoid any potential position effects. The septa loaded with sex pheromone components were replaced with new ones after every 15 days of suspension. The data were analyzed using a one-way ANOVA, and the differences in the average trapping of OFM and PFM males using sex attractants containing different amounts of Z8-14:Ac or Z10-14:Ac were further analyzed using Tukey’s HSD test, both of which were performed using SPSS 23.0.

OFM males = test: Field trapping with delta traps, pear orchard; format: in vivo, Grapholita molesta; conditions: pear orchard; for Inhibition Rate of OFM Males: vs 100:4:0
Method: as §4

[1] = Z8-12:Ac/E8-12:Ac/Z10-14:Ac 500/20/25 μg (100:4:5)
[2] = Z8-12:Ac/E8-12:Ac/Z10-14:Ac 500/20/50 μg (100:4:10)
[3] = Z8-12:Ac/E8-12:Ac/Z10-14:Ac 500/20/100 μg (100:4:20)
[4] = Z8-12:Ac/E8-12:Ac/Z10-14:Ac 500/20/150 μg (100:4:30)
[5] = Z8-12:Ac/E8-12:Ac/Z10-14:Ac 500/20/250 μg (100:4:50)
[6] = Z8-12:Ac/E8-12:Ac/Z10-14:Ac 500/20/350 μg (100:4:70)
[7] = Z8-12:Ac/E8-12:Ac/Z10-14:Ac 500/20/450 μg (100:4:90)
[8] = Z8-12:Ac/E8-12:Ac/Z10-14:Ac 500/20/550 μg (100:4:110)
[9] = more than 10% of Z10-14:Ac added to Z8-12:Ac and E8-12:Ac (100:4)

rGmolGOBP2, sequence (H9XTU6 entry or part of it): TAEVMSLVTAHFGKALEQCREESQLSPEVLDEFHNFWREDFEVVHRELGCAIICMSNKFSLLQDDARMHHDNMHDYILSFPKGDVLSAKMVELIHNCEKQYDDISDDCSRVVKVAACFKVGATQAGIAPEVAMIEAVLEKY
rGmolPBP2 (wild-type), sequence (A0A059VC28 entry or part of it): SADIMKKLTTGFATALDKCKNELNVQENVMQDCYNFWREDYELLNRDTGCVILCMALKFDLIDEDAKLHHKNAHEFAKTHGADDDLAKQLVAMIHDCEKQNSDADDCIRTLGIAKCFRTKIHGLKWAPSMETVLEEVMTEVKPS
rGmolPBP3, sequence (A0A059VBP3 entry or part of it): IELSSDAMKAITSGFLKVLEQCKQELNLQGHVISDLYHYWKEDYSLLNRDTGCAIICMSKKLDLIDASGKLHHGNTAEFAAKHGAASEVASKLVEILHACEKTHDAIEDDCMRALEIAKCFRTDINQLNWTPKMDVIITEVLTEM
rGmolGOBP1, sequence (H9XTU5 entry or part of it): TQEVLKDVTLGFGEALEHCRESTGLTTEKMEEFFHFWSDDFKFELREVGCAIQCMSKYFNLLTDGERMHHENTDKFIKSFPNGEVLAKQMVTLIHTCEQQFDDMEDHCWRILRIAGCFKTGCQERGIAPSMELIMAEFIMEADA
rGmolPBP1, sequence (A0A2R4SBD6 entry or part of it): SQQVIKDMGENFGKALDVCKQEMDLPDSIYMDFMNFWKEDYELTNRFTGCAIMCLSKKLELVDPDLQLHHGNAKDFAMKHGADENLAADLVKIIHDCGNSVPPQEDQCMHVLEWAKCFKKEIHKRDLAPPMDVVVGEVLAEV

## c1ccc(Nc2cccc3ccccc23)cc1 [1−NPN, N-Phenyl-1-naphthylamine, reference compound]
rGmolGOBP2
  Kd: 4.32 ± 0.02 µM
rGmolGOBP1
  Kd: 5.76 ± 0.01 µM
rGmolPBP2 (wild-type)
  Kd: 1.09 ± 0.02 µM
rGmolPBP1
  Kd: 1.29 ± 0.02 µM
rGmolPBP3
  Kd: 11.24 ± 0.08 µM

## CCC/C=C/CCCCCCCOC(C)=O [E8-12:Ac, (E)-8-dodecenyl acetate]
PFM male antennae
  EAG response of PFM males: higher sensitivity
OFM male antennae
  EAG response of OFM males: higher sensitivity

## CCC/C=C\CCCCCCCOC(C)=O [Z8-12:Ac, (Z)-8-dodecenyl acetate]
PFM male antennae
  EAG response of PFM males: higher sensitivity
OFM male antennae
  EAG response of OFM males: higher sensitivity

## CCC/C=C\CCCCCCCCCOC(C)=O [Z10-14:Ac, (Z)-10-tetradecenyl acetate]
PFM males; [1]
  Total PFM Males/Trap: 121.32 ± 12.10 ab Males/Trap
PFM males; [2]
  Total PFM Males/Trap: 101.39 ± 7.72 b Males/Trap
PFM males; [3]
  Total PFM Males/Trap: 102.73 ± 10.21 b Males/Trap
PFM males; [4]
  Total PFM Males/Trap: 66.08 ± 8.27 c Males/Trap
PFM males; [5]
  Total PFM Males/Trap: 62.46 ± 5.63 c Males/Trap
PFM males; [6]
  Total PFM Males/Trap: 51.35 ± 7.21cd Males/Trap
PFM males; [7]
  Total PFM Males/Trap: 41.24 ± 5.10 d Males/Trap
PFM males; [8]
  Total PFM Males/Trap: 42.33 ± 3.95 d Males/Trap
PFM males; [9]
  maximum reduction of the capture of PFM males: ≤ 71.07%
PFM male antennae
  EAG response of PFM males: moderate EAG response
OFM male antennae; 20 μg
  EAG values of OFM males compared with PFM males: absence of significant difference
OFM male antennae
  EAG response of OFM males: moderate EAG response
OFM male antennae; 200 and 2000 μg
  EAG values of OFM males compared with PFM males: significantly greater than that of PFM males
OFM males; [1]
  Total OFM Males/Trap: 125.55 ± 14.47 ab Males/Trap
  Inhibition Rate of OFM Males: 35.04%
OFM males; [2]
  Total OFM Males/Trap: 97.92 ± 10.31 bc Males/Trap
  Inhibition Rate of OFM Males: 49.34%
OFM males; [3]
  Total OFM Males/Trap: 83.33 ± 9.82 cd Males/Trap
  Inhibition Rate of OFM Males: 56.89%
OFM males; [4]
  Total OFM Males/Trap: 33.56 ± 2.24 e Males/Trap
  Inhibition Rate of OFM Males: 82.64%
OFM males; [5]
  Total OFM Males/Trap: 31.28 ± 3.22 e Males/Trap
  Inhibition Rate of OFM Males: 83.82%
OFM males; [6]
  Total OFM Males/Trap: 37.49 ± 3.45 e Males/Trap
OFM males; [7]
  Total OFM Males/Trap: 23.64 ± 1.23 e Males/Trap
  Inhibition Rate of OFM Males: 87.77%
OFM males; [8]
  Total OFM Males/Trap: 29.69 ± 2.18 e Males/Trap
  Inhibition Rate of OFM Males: 84.64%
OFM males; [9]
  maximum reduction of the capture of OFM males: up to 87.77%
